{
  "source": "the supplement of paper PMC11061612",
  "assay_in_all_cases": "combination Emax (second highest fraction inhibited in the dose matrix, 72 h); higher = more inhibition; extreme values may be limits of the assay",
  "key": {"EW-1 (Ewing's Sarcoma)": {"test_system": "EW-1 (Ewing's Sarcoma)", "how_it_was_run": "(§1)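 Bliss excess equals the observed combination effect minus the expected value EA + EB − EA·EB, where EA and EB are the effects of each agent alone. Combination Emax is the second-highest inhibition within the matrix. Inhibition was scaled from CellTiter-Glo 2.0 luminescence, with 0 set by vehicle wells and 1 by blank wells, after 72 hours of two-drug dosing of cells plated in 1536-well plates.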"}, "[1]": {"test_system": "HAL-01 (B-Lymphoblastic Leukemia)", "how_it_was_run": "as §1"}, "[2]": {"test_system": "Mo-T (Other Blood Carcinomas)", "how_it_was_run": "as §1"}, "SK-N-AS (Neuroblastoma)": {"test_system": "SK-N-AS (Neuroblastoma)", "how_it_was_run": "as §1"}},
  "data": [
    {"smiles": "COc1cccc(OCCCN)c1-c1cc(Nc2cnc(C#N)cn2)n[nH]1", "note": "[Prexasertib] + C=CCn1c(=O)c2cnc(Nc3ccc(N4CCN(C)CC4)cc3)nc2n1-c1cccc(C(C)(C)O)n1 [AZD1775] (first compound max 1 µM, partner max 1 µM)", "values": [
      {"measurement": "combination Emax", "setting": "EW-1 (Ewing's Sarcoma)", "result": 0.966},
      {"measurement": "combination Emax", "setting": "[1]", "result": 1},
      {"measurement": "combination Emax", "setting": "[2]", "result": 0.539},
      {"measurement": "combination Emax", "setting": "SK-N-AS (Neuroblastoma)", "result": 1}
    ]},
    {"smiles": "COc1cccc(OCCCN)c1-c1cc(Nc2cnc(C#N)cn2)n[nH]1", "note": "[Prexasertib] + Cc1cc2ncnn2cc1Nc1ncc2c(n1)n(C1CCOCC1)c(=O)n2C [AZD7648] (first compound max 1 µM, 7x7, partner max 10 µM)", "values": [
      {"measurement": "combination Emax", "setting": "EW-1 (Ewing's Sarcoma)", "result": 0.962},
      {"measurement": "combination Emax", "setting": "[1]", "result": 1},
      {"measurement": "combination Emax", "setting": "[2]", "result": 0.523},
      {"measurement": "combination Emax", "setting": "SK-N-AS (Neuroblastoma)", "result": 0.984}
    ]},
    {"smiles": "Cc1c2c(nn1C)CSCc1cc(n(C)n1)CSc1cc(c3ccccc3c1)OCCCc1c(C(=O)O)n(C)c3c-2c(Cl)ccc13", "note": "[AZD5991] + C=CCn1c(=O)c2cnc(Nc3ccc(N4CCN(C)CC4)cc3)nc2n1-c1cccc(C(C)(C)O)n1 [AZD1775] (first compound max 1 µM, partner max 1 µM)", "values": [
      {"measurement": "combination Emax", "setting": "EW-1 (Ewing's Sarcoma)", "result": 0.974},
      {"measurement": "combination Emax", "setting": "[1]", "result": 0.907},
      {"measurement": "combination Emax", "setting": "[2]", "result": 0.562},
      {"measurement": "combination Emax", "setting": "SK-N-AS (Neuroblastoma)", "result": 0.964}
    ]},
    {"smiles": "CC1(C)CCC(CN2CCN(c3ccc(C(=O)NS(=O)(=O)c4ccc(NCC5CCOCC5)c([N+](=O)[O-])c4)c(Oc4cnc5[nH]ccc5c4)c3)CC2)=C(c2ccc(Cl)cc2)C1", "note": "[Venetoclax] + CN(C)CCCOc1ccc(-c2ccc3ncc4c(c3c2)n(C2CCOCC2)c(=O)n4C)cn1 [AZD0156] (first compound max 1 µM, 7x7, partner max 1 µM)", "values": [
      {"measurement": "combination Emax", "setting": "EW-1 (Ewing's Sarcoma)", "result": 0.179},
      {"measurement": "combination Emax", "setting": "[1]", "result": 0.936},
      {"measurement": "combination Emax", "setting": "[2]", "result": 0.558},
      {"measurement": "combination Emax", "setting": "SK-N-AS (Neuroblastoma)", "result": 0.17}
    ]},
    {"smiles": "COc1nnc2ccc(N3CCC(c4ccc(OCCN5CCN(C)C(=O)[C@H]5C)cc4)CC3)nn12", "note": "[AZD5153] + C[C@@H]1COCCN1C2=NC(=NC(=C2)C3(CC3)[S@](=N)(=O)C)C4=C5C=CNC5=NC=C4 [AZD6738] (first compound max 1 µM, 7x7, partner max 10 µM)", "values": [
      {"measurement": "combination Emax", "setting": "EW-1 (Ewing's Sarcoma)", "result": 0.953},
      {"measurement": "combination Emax", "setting": "[1]", "result": 0.965},
      {"measurement": "combination Emax", "setting": "[2]", "result": 0.746},
      {"measurement": "combination Emax", "setting": "SK-N-AS (Neuroblastoma)", "result": 0.716}
    ]},
    {"smiles": "C=CCn1c(=O)c2cnc(Nc3ccc(N4CCN(C)CC4)cc3)nc2n1-c1cccc(C(C)(C)O)n1", "note": "[AZD1775] + O=C(c1cc(Cc2n[nH]c(=O)c3ccccc23)ccc1F)N1CCN(C(=O)C2CC2)CC1 [Olaparib] (first compound max 1 µM, partner max 10 µM)", "values": [
      {"measurement": "combination Emax", "setting": "EW-1 (Ewing's Sarcoma)", "result": 0.907},
      {"measurement": "combination Emax", "setting": "[1]", "result": 0.935},
      {"measurement": "combination Emax", "setting": "[2]", "result": 0.456},
      {"measurement": "combination Emax", "setting": "SK-N-AS (Neuroblastoma)", "result": 0.78}
    ]},
    {"smiles": "COc1nnc2ccc(N3CCC(c4ccc(OCCN5CCN(C)C(=O)[C@H]5C)cc4)CC3)nn12", "note": "[AZD5153] + Cc1c2c(nn1C)CSCc1cc(n(C)n1)CSc1cc(c3ccccc3c1)OCCCc1c(C(=O)O)n(C)c3c-2c(Cl)ccc13 [AZD5991] (first compound max 1 µM, 7x7, partner max 1 µM)", "values": [
      {"measurement": "combination Emax", "setting": "EW-1 (Ewing's Sarcoma)", "result": 0.751},
      {"measurement": "combination Emax", "setting": "[1]", "result": 0.873},
      {"measurement": "combination Emax", "setting": "[2]", "result": 0.616},
      {"measurement": "combination Emax", "setting": "SK-N-AS (Neuroblastoma)", "result": 0.739}
    ]},
    {"smiles": "CC1(C)CCC(CN2CCN(c3ccc(C(=O)NS(=O)(=O)c4ccc(NCC5CCOCC5)c([N+](=O)[O-])c4)c(Oc4cnc5[nH]ccc5c4)c3)CC2)=C(c2ccc(Cl)cc2)C1", "note": "[Venetoclax] + C[C@@H](Nc1cc(F)cc(F)c1)c1cc(C(=O)N(C)C)cc2c(=O)cc(N3CCOCC3)oc12 [AZD8186] (first compound max 1 µM, 7x7, partner max 3 µM)", "values": [
      {"measurement": "combination Emax", "setting": "EW-1 (Ewing's Sarcoma)", "result": 0.303},
      {"measurement": "combination Emax", "setting": "[1]", "result": 0.988},
      {"measurement": "combination Emax", "setting": "[2]", "result": 0.632},
      {"measurement": "combination Emax", "setting": "SK-N-AS (Neuroblastoma)", "result": 0.0826}
    ]},
    {"smiles": "Cc1c2c(nn1C)CSCc1cc(n(C)n1)CSc1cc(c3ccccc3c1)OCCCc1c(C(=O)O)n(C)c3c-2c(Cl)ccc13", "note": "[AZD5991] + CCN(CCO)CCCOc1ccc2c(Nc3cc(CC(=O)Nc4cccc(F)c4)[nH]n3)ncnc2c1 [AZD2811] (first compound max 1 µM, 7x7, partner max 1 µM)", "values": [
      {"measurement": "combination Emax", "setting": "EW-1 (Ewing's Sarcoma)", "result": 0.482},
      {"measurement": "combination Emax", "setting": "[1]", "result": 0.468},
      {"measurement": "combination Emax", "setting": "[2]", "result": 0.189},
      {"measurement": "combination Emax", "setting": "SK-N-AS (Neuroblastoma)", "result": 0.808}
    ]},
    {"smiles": "CN(CCO)CC[C@H](CSc1ccccc1)Nc1ccc(S(=O)(=O)NC(=O)c2ccc(N3CCC([C@@H](O)c4ccccc4-c4ccc(Cl)cc4)CC3)cc2)cc1S(=O)(=O)C(F)(F)F", "note": "[AZD4320] + C=CCn1c(=O)c2cnc(Nc3ccc(N4CCN(C)CC4)cc3)nc2n1-c1cccc(C(C)(C)O)n1 [AZD1775] (first compound max 1 µM, partner max 1 µM)", "values": [
      {"measurement": "combination Emax", "setting": "EW-1 (Ewing's Sarcoma)", "result": 1},
      {"measurement": "combination Emax", "setting": "[1]", "result": 1},
      {"measurement": "combination Emax", "setting": "[2]", "result": 0.984},
      {"measurement": "combination Emax", "setting": "SK-N-AS (Neuroblastoma)", "result": 0.976}
    ]}
  ]
}
